The results in this text go back to ChEMBL document CHEMBL1201862, “PubChem BioAssay data set” (2004).

Each structure is given as a SMILES string. Activity calls are given as the source filed them.

Experiment [1] has as its target T1, RNA-binding protein pos-1 (Caenorhabditis elegans, UniProt G5EF15).
T1 sequence (G5EF15 whole entry): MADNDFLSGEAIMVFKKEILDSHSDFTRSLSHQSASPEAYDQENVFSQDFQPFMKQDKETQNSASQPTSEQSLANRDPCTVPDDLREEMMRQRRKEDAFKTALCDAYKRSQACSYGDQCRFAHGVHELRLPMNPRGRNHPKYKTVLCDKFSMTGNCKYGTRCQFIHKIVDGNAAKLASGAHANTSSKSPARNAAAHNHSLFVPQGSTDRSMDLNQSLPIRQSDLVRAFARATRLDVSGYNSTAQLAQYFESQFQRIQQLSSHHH
Kind of experiment: disruptors of C. elegans POS-1 RNA interaction – biochemical, fluorescence polarization, dose response (AID 1964).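 Further: purified POS-1 fused to maltose binding protein made in E. coli; potency of compounds blocking POS-1 binding to fluorescent RNA.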 Background: Polarisation of emitted light reports the rotation of a fluorescent probe.

Experiment [2] addresses T2, Zinc finger protein mex-5 (Caenorhabditis elegans, UniProt Q9XUB2).
T2 sequence (Q9XUB2 whole entry): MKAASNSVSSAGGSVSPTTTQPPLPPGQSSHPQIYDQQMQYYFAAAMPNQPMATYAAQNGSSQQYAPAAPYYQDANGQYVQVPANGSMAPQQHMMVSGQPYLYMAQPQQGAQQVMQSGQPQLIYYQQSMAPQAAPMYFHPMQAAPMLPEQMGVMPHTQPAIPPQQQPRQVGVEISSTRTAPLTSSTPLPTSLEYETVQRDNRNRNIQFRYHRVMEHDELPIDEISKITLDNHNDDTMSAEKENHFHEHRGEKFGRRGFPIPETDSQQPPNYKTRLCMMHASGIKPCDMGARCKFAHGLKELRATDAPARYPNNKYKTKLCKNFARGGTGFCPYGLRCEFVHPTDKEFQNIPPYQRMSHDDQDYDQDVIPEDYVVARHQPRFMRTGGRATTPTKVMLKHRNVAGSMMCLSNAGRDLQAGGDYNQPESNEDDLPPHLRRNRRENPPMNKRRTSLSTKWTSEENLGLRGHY
The experiment in a line: potency of MEX-5 RNA-binding blockers – biochemical, C. elegans, fluorescence polarization, dose response (AID 1960).

The target in experiment [3] is T3, Bcl-2-related protein A1 (Mus musculus, UniProt Q07440).
T3 sequence (Q07440 whole entry): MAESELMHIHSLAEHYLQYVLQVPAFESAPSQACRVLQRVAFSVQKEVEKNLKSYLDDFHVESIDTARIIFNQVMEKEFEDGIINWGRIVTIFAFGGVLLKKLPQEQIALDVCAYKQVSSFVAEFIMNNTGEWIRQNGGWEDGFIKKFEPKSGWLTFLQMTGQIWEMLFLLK
Kind of experiment: displacement of Bid BH3 peptide from Bfl-1 – biochemical, fluorescence polarization, FITC-Bid, mouse, primary screen (AID 432).

Experiment [4] addresses 14-3-3 protein gamma (Homo sapiens, UniProt P61981). Kind of experiment: modulators of 14-3-3 gamma client binding – dose response (AID 711). The experiment is classed as functional.
The target in experiment [5] is T3, Bcl-2-related protein A1. Kind of experiment: small-molecule antagonists of Bfl-1/BH3 interaction – biochemical, TR-FRET, mouse Bfl-1, confirmation (AID 621).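 Further: TR-FRET binding of GST-Bfl-1 to FITC-labelled Bid peptide via terbium antibody.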 Background: Time-resolved FRET reads energy transfer from a long-lived donor to a nearby acceptor.
Experiment [6] has as its target Galanin receptor type 2 (Homo sapiens, UniProt O43603). Kind of experiment: Dose Response cell-based high-throughput screening assay to identify antagonists of galanin receptor 2 (GALR2). [Related pubchem assays: 828, 866 ]. The experiment is classed as functional.
Experiment [7] has as its target T4, Histone-lysine N-methyltransferase NSD2 (Homo sapiens, UniProt O96028).
T4 sequence (O96028 whole entry): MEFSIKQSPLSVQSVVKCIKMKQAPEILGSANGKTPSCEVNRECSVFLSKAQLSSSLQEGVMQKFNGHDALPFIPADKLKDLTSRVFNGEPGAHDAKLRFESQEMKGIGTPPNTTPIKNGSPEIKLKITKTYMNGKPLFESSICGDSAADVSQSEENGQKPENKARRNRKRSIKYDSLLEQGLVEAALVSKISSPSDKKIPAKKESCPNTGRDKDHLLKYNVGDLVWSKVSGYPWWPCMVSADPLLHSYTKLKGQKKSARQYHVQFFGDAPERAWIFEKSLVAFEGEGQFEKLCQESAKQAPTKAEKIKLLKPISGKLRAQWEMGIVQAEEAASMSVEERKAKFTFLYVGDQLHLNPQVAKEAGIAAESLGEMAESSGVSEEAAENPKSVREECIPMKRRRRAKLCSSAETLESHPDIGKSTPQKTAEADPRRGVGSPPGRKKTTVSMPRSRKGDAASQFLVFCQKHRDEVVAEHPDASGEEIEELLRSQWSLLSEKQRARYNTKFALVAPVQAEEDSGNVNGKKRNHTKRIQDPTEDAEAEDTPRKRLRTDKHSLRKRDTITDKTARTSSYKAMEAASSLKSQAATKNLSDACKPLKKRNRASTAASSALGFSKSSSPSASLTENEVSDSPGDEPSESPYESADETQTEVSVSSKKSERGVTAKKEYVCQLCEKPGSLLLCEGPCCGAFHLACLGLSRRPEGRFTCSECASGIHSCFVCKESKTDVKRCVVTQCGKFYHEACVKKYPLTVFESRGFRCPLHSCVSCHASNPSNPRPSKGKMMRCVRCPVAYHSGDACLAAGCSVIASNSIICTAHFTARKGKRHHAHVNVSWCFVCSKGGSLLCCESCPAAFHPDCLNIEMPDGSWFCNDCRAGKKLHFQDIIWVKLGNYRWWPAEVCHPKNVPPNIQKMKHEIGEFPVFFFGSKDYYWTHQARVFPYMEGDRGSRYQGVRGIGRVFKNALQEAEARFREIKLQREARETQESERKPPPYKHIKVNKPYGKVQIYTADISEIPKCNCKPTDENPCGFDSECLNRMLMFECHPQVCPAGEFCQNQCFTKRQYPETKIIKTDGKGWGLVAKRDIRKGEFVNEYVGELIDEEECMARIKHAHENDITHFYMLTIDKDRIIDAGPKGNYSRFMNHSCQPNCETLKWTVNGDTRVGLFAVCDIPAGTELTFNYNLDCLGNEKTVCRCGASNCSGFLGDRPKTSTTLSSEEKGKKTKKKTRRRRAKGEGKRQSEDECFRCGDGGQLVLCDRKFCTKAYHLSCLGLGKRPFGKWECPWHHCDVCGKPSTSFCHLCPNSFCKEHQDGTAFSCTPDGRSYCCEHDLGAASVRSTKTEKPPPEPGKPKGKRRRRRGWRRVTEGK
In kind it is biochemical.

Experiment [8] concerns the target Nonstructural protein 1 (Influenza A virus, UniProt Q194T2). In kind it is functional, Influenza A virus (A/California/07/2009(H1N1)).
Experiment [9] can be described thus: viability of HCT116 lacking mutant beta-catenin – cell-based, human colon tumor, dose response (AID 1045).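 Further: HCT116 colon tumor cells with beta catenin knocked out; cells exposed to compound for 60 hours.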 The experiment is classed as functional.
The nature of experiment [10]: viability of PTEN-deleted HCT116 cells – cell-based, HCT116 PTEN knockout, dose response (AID 1047).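 Further: HCT116 colon tumor cells with PTEN knocked out; cells exposed to compound for 60 hours before readout; potency for loss of cell viability measured by luminescence.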 In kind it is functional.
In experiment [11] the target is T5, Rac GTPase-activating protein 1 (Homo sapiens, UniProt Q9H0H5).
T5 sequence (Q9H0H5 whole entry): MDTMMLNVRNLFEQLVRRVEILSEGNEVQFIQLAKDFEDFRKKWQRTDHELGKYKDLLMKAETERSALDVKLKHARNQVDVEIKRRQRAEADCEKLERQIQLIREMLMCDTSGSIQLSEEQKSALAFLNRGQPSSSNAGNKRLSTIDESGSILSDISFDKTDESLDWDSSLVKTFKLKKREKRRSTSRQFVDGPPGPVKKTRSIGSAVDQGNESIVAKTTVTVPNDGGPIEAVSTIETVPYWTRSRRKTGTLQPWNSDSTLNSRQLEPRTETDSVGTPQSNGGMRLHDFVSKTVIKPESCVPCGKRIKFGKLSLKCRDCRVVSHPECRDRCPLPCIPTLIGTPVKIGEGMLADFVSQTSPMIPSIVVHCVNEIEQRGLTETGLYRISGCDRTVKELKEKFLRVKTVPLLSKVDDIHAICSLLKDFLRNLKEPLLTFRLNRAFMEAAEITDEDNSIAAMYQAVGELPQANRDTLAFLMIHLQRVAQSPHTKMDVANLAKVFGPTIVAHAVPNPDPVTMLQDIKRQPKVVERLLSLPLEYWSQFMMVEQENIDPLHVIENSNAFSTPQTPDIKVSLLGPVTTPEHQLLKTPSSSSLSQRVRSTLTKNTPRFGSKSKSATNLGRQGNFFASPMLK
Kind of experiment: blockers of MgcRacGAP-driven Rac1 GTP hydrolysis – biochemical, ADP Hunter fluorescence, primary and confirmatory, confirmation (AID 624330). The experiment is classed as functional.

Experiment [12] has as its system Vero. The experiment in a line: viability of Vero cells under compound – cytotoxicity control for flavivirus capping enzyme inhibitors (AID 588742). In kind it is functional. To be noted: Chlorocebus sabaeus.
Experiment [13] deals with T6, Mannose-6-phosphate isomerase (Homo sapiens, UniProt P34949).
T6 sequence (P34949 whole entry): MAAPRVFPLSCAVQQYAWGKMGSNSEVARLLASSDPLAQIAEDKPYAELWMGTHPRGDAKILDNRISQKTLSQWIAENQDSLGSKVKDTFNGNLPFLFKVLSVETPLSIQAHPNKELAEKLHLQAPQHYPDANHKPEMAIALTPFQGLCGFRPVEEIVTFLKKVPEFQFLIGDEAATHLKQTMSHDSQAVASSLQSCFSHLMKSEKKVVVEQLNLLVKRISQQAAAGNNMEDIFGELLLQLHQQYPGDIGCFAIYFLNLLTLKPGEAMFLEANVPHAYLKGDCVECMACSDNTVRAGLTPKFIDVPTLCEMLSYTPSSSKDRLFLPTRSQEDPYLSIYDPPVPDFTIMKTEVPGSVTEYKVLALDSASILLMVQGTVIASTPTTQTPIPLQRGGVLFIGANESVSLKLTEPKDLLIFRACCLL
The experiment in a line: MPI inhibition at elevated mannose 6-phosphate – biochemical, fluorescence intensity, high mannose 6-phosphate, primary screen (AID 1220).

Experiment [14] in a line: viability loss in HeLa cells – cytotoxicity control for MgcRacGAP inhibitor project, dose response (AID 624300). The experiment is classed as functional.
For experiment [15], the target named is T7, Neuropeptide Y receptor type 2 (Homo sapiens, UniProt P49146).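 Further: HEK293 cells expressing the receptor and a CNG channel; stimulus was NPY near EC95 followed by isoproterenol to raise cAMP; antagonist potency measured as restoring cAMP signal that NPY suppresses.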
T7 sequence (P49146 whole entry): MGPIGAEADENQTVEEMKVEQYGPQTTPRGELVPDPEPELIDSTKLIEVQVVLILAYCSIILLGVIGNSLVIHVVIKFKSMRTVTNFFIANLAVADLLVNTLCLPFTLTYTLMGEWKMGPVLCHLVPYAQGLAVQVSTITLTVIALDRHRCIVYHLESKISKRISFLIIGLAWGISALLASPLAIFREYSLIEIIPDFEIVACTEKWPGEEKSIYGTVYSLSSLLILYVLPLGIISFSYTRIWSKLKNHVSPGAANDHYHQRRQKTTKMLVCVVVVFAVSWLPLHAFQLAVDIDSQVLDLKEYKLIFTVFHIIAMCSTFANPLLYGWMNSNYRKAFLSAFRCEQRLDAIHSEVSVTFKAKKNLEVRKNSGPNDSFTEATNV
The experiment is classed as functional, cell-based.

The target of experiment [16] is T8, Neuropeptide Y receptor type 1 (Homo sapiens, UniProt P25929).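 Further: HEK293 cells with a CNG channel challenged with NPY then isoproterenol; potency as antagonist that reverses NPY suppression of cAMP signal.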
T8 sequence (P25929 whole entry): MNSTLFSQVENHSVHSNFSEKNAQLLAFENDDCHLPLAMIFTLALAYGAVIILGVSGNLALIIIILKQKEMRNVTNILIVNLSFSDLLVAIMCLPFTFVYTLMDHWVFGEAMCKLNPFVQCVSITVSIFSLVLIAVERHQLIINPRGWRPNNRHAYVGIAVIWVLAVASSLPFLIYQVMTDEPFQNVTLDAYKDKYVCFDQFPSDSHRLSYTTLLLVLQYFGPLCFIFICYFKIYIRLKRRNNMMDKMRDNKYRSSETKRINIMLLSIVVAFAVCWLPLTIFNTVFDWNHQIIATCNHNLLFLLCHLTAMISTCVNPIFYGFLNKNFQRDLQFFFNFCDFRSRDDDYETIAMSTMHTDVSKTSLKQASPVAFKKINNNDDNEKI
The experiment is classed as functional.

Experiment [17] concerns the target Lytic switch protein BZLF1 (Epstein-Barr virus (strain B95-8) (HHV-4) (Human herpesvirus 4), UniProt P03206). The experiment in a line: inhibition of BZLF1 ZTA DNA binding – biochemical, fluorescence polarization, Epstein-Barr virus, 1536-well, counter-screen for EBNA-1 inhibitor project, dose response (AID 2377).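 Further: fluorescence polarization of Cy5-labelled ZRE DNA probe bound by purified Zta.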 Also noted: species or system human gammaherpesvirus 4.

For experiment [18], the target named is Epstein-Barr nuclear antigen 1 (Epstein-Barr virus (strain B95-8) (HHV-4) (Human herpesvirus 4), UniProt P03211). Kind of experiment: inhibition of EBV nuclear antigen 1 DNA binding – biochemical, fluorescence polarization, 1536-well, dose response (AID 2381).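 Further: fluorescence polarization of a Cy5 DNA probe bound by EBNA-1 protein.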 Set-up: species or system human gammaherpesvirus 4.
Sequence of Epstein-Barr nuclear antigen 1 (P03211 whole entry): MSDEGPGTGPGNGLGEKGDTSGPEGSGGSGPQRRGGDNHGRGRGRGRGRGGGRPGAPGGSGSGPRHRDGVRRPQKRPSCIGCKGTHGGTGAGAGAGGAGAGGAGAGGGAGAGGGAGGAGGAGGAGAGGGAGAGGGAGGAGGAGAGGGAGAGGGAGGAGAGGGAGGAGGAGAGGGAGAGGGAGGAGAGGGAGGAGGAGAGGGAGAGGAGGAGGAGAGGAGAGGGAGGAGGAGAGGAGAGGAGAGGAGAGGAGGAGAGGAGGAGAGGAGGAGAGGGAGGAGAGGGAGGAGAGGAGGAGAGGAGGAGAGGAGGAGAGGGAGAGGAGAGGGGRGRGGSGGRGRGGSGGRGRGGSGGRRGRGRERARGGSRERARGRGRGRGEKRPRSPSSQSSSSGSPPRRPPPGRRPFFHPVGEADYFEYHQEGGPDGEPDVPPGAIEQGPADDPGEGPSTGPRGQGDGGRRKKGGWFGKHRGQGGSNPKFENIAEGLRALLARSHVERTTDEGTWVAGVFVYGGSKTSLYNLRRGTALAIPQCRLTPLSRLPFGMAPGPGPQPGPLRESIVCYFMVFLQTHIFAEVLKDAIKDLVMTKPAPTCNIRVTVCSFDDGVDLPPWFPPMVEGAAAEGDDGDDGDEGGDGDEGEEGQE

Sequence of Nonstructural protein 1 (Q194T2 whole entry): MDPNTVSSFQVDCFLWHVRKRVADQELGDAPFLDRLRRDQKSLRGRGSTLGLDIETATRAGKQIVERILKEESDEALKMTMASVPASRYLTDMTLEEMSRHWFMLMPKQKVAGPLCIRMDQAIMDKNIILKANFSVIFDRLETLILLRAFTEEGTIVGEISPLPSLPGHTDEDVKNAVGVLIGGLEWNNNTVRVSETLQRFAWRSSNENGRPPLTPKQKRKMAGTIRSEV
Sequence of 14-3-3 protein gamma (P61981 whole entry): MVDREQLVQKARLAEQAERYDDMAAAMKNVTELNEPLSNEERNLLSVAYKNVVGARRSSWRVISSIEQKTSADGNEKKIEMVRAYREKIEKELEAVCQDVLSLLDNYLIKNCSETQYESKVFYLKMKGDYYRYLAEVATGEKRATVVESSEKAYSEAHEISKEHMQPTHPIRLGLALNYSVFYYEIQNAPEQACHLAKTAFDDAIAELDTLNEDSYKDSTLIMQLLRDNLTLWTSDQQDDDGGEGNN
Sequence of Lytic switch protein BZLF1 (P03206 whole entry): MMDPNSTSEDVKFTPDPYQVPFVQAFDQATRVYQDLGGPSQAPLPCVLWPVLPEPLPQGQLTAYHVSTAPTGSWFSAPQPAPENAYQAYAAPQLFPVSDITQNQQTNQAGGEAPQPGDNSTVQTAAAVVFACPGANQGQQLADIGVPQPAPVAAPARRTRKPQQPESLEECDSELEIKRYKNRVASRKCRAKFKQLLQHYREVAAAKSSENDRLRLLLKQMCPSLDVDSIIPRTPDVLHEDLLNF
Sequence of Galanin receptor type 2 (O43603 whole entry): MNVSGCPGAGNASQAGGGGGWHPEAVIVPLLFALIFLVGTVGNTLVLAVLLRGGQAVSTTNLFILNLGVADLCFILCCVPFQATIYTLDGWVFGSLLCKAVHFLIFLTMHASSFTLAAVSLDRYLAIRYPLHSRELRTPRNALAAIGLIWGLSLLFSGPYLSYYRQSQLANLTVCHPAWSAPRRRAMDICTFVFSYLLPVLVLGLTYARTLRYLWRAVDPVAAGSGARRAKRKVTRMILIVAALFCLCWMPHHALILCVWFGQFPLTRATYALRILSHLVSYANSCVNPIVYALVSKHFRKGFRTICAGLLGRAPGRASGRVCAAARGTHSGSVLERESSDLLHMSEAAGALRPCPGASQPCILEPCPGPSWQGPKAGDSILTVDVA

Turning to `Cc1ccc(C2C3CN(C(C)C)CC=C3C(C#N)=C(N)C2(C#N)C#N)cc1` (stereo not drawn), the EC50 (as a rule, the concentration needed to bring the measured effect to its halfway point) is 7.15 µM (inconclusive) in [1] and 8.29 µM (inconclusive) in experiment [2]. The IC50 (usually the concentration that gives 50% inhibition) in experiment [3] is recorded as > 100 µM (not active); in experiment [4], > 50 µM (not active); in experiment [5], > 100 µM (not active).

Regarding `CN(C)c1ccc(NC2=C(Cl)C(=O)c3ccccc3C2=O)cc1`, the IC50 in experiment [6] was 8.84 µM (active); in experiment [8], 7.36 µM (active); in experiment [11] it was 122 µM (active); in experiment [13], > 50 µM (not active). Also, the AC50 (usually the concentration at which the activity in the assay is half-maximal) in experiment [7] was 5.02 µM (active). Further, the EC50 in experiment [9] was 3.94 µM (active); in experiment [10], 6.29 µM (active). Moreover, the CC50 (as a rule, the concentration at which the toxic effect on the cells reaches its halfway point) in experiment [12] was 32.2 µM (active); in experiment [14], 16.1 µM (active).

Take `N=c1n(Cc2ccc(Cl)cc2)c2ccccc2n1CC(O)c1ccco1` (stereo not drawn): the IC50 in experiment [15] and in experiment [16] was > 35 µM (not active) each time.

Turning to `N#C/C(=C\c1cn(Cc2ccccc2F)c2ccccc12)C(=O)NCc1ccco1`, the IC50 in experiment [17] was > 111 µM (not active); in experiment [18], 6.53 µM (active).
